“Also recorded” adds a separate entry of the source. Like-named read-outs stand apart in the source and are kept apart here.
How the values were obtained:
[1] = target: T1, human recombinant ACE2 (Homo sapiens, UniProt Q9BYF1); assay: ACE2 activity assay with fluorogenic peptide VI; type: biochemical
T1 construct: purchased R&D Systems, Minneapolis, Minn; 933-ZN-10
Procedure: (§1) Activity of ACE and ACE2 was measured with a Spectra Max Gemini EM Florescence Reader (Molecular Devices). The enzyme removes the c-terminal dinitrophenyl moiety that quenches the inherent fluorescence of its 7-methoxycoumain group, resulting in an increase in fluorescence in the presence of enzyme activity. Fluorescence was measured with excitation and emission spectra of 328 nm and 392 nm, respectively. Reaction mixtures were prepared in 100 μl volumes and different concentrations of compound were tested against 10 μM substrate. 10 nM enzyme in 100 mM NaCl, 75 mM Iris, 0.5 μM ZnCl2, at pH 7.4. Samples were read every 15-20 seconds for at least 30 minutes immediately after the addition of fluorogenic peptide substrate at 37° C. Assays, including controls, were performed in the presence of 1% dimethyl sulfoxide (DMSO). Although higher concentrations of NaCl increase the activity of ACE2 and ACE (Vickers et al. 2002), a low concentration of salt (100 mM NaCl) was used in the assays to allow for enhancement of enzymatic activity to be detectable. That is, using 1 M NaCl which gives a maximal enhancing effect from the Cl ions might not allow the compounds to further enhance the activity of the enzyme. The lower salt concentration should give the compounds available room for activation.
Controls in the presence and absence of DMSO and without compound were carried out to evaluate the effect of DMSO on the activity of ACE and ACE2. Assays with no DMSO, 1% DMSO, and 2% DMSO were performed in identical conditions (i.e, pH, temperature, salt concentration, reaction mix volume and so on) to those of the experimental assays.
The experimental assays were corrected at each concentration since higher or lower concentrations of compounds affected the background signal in a concentration dependent manner.
Human recombinant ACE and ACE2 were obtained from R&D systems, Minneapolis, Minn., along with their respective fluorogenic substrates (ACE, catalog ID: 929-ZN-10; ACE2, 933-ZN-10; ACE substrate, fluorogenic peptide V, Mca RPPGFSAFK(Dnp)-OH, catalog ID: ES005; ACE2 substrate, fluorogenic peptide VI, Mca-YVADAPK(Dnp)-OH, ES007). Enzymatic activity was measured with a Spectra Max Gemini EM Fluorescence Reader (Molecular Devices) (Huentelman et al., Regul. Pept. 122:61-67 (2004)). Compounds were tested against 50 μM substrate. All assays were performed at least in triplicate in a reaction mixture containing 10 nM enzyme, 1 M NaCl, 75 mM Tris-HCl, 1% DMSO and 0.5 μM ZnCl2, at pH 7.4. Samples were read every 15-30 seconds for at least 30 minutes immediately after the addition of fluorogenic peptide substrates at 37° C. […] Enzyme activity was corrected for background.

[2] = Solubility as observed during assays and formulation; type: physicochemical
From the text: Recombinant ACE and ACE2 were obtained in purified form from R&D Systems, Minneapolis, Minn. (catalog ID: 929-ZN-10 and 933-ZN-10, respectively). Substrates for ACE (fluorogenic peptide V, Mca-RPPGFSAFK(Dnp)-OH, catalog ID: ES005), and for ACE2 (fluorogenic peptide VI, Mca-YVADAPK(Dnp)-OH, catalog ID: ES007) were also obtained from R&D systems. Top scoring molecules were obtained from the National Cancer Institute (NCI) for functional testing. Dry compounds were resuspended in 100% DMSO to prepare 100 mM stock solutions, according to the amount of compound provided by the NCI and its molecular weight. Gentle heating to 60-80 C was carried out to assist their solubilization. Some compounds were further diluted to 50 mM stocks if clearly difficult to dissolve.
XNT was dissolved in saline at low pH (2-2.5) for in vivo studies. This compound was consistently prepared 24-48 hours before delivery in animals. XNT was prepared on a gram scale in six synthetic steps from 5-methoxysalicylic acid and m-chloroiodobenzene through modifications of a published procedure (Archer et al., J. Med. Chem. 26:1240-1246 (1983); Archer et al., J. Med. Chem. 31:254-260 (1988).

[3] = target: T2, Human recombinant ACE (Homo sapiens, UniProt P12821); assay: ACE activity assay with fluorogenic peptide V; type: biochemical
T2 construct: purchased R&D Systems, Minneapolis, Minn; 929-ZN-10
T2 sequence (P12821 30-1261 limits assumed): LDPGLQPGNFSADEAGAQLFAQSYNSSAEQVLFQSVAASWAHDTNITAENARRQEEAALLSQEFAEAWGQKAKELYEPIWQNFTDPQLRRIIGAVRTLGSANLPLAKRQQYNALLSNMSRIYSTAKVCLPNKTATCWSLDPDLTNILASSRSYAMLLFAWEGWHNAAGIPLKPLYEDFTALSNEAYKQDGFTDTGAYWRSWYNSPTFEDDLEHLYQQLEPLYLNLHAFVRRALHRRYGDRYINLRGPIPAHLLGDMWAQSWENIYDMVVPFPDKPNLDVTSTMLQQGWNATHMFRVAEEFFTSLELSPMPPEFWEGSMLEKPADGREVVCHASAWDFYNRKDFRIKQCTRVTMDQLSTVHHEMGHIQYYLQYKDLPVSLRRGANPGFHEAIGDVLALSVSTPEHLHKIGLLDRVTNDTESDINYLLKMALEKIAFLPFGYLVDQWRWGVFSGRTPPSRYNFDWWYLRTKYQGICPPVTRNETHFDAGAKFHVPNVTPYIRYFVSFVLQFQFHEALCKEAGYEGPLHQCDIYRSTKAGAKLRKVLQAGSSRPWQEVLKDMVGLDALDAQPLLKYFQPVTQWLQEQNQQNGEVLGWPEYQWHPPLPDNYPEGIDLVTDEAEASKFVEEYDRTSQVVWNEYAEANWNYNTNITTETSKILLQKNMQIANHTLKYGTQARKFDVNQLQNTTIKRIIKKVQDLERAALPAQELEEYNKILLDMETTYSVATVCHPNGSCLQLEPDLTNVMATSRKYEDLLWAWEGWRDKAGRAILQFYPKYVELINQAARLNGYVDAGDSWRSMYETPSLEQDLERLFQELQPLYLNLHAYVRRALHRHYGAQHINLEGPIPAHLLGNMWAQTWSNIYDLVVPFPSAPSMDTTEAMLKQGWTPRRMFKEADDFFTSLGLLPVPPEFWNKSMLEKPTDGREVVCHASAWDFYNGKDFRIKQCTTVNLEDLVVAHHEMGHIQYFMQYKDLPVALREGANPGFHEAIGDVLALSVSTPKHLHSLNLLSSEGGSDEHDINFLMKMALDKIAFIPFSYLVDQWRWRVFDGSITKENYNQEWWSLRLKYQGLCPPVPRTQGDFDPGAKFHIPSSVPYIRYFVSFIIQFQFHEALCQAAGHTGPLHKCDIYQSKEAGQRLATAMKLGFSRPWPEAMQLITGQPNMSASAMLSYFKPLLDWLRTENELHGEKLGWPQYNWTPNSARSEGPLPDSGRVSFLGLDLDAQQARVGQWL
Procedure: as §1
Controls in the presence and absence of DMSO and without compound were carried out to evaluate the effect of DMSO on the activity of ACE and ACE2. […]
Human recombinant ACE and ACE2 were obtained from R&D systems, Minneapolis, Minn., along with their respective fluorogenic substrates (ACE, catalog ID: 929-ZN-10; ACE2, 933-ZN-10; ACE substrate, fluorogenic peptide V, Mca RPPGFSAFK(Dnp)-OH, catalog ID: ES005; ACE2 substrate, fluorogenic peptide VI, Mca-YVADAPK(Dnp)-OH, ES007). Enzymatic activity was measured with a Spectra Max Gemini EM Fluorescence Reader (Molecular Devices) (Huentelman et al., Regul. Pept. 122:61-67 (2004)). […] Samples were read every 15-30 seconds for at least 30 minutes immediately after the addition of fluorogenic peptide substrates at 37° C. […]

[4] = listed as resorcinolnaphthalein

T1 sequence (Q9BYF1 18-740 limits assumed): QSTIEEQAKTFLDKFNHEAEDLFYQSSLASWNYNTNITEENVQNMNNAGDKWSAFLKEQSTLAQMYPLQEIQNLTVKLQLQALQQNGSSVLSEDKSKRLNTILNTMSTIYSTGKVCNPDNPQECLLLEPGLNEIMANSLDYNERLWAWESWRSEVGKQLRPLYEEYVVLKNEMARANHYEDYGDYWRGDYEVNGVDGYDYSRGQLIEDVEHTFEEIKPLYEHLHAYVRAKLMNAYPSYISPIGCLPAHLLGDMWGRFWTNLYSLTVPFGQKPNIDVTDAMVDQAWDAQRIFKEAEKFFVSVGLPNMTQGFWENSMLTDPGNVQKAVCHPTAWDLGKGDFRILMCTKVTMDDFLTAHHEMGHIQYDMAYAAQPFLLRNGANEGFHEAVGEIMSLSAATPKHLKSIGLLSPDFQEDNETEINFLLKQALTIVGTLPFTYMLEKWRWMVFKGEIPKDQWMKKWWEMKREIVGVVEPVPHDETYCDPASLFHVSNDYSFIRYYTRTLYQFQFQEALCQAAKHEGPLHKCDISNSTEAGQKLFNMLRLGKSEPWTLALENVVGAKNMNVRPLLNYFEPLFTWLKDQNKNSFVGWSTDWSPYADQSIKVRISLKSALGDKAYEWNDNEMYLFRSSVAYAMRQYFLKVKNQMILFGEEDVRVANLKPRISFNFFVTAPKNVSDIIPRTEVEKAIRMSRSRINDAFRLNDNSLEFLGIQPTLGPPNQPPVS

For `O=C1OC2(c3ccc(O)cc3Oc3cc(O)ccc32)c2cccc3cccc1c23` [Compound 6, resorcinalnaphthalein], the “ACE2 activity, dose response” value [1] was “did not show the same dose response”, the ACE2 activity ([1]; 100 μM compound) was “ACE2-specific enhancement” and the “increase of ACE2 activity” value ([1]; 100 μM compound, FIG. 3, 40 minute time course) was “about 2 fold”. The ACE2 activity ([1]; 500 μM compound) was “returned down to control level”, the ACE2 activity ([1]; 20, 50 and 100 μM compound) was “activated ACE2 identically; also recorded: identical curves” and the ACE2 activity ([1]; concentrations higher than 100 μM) was “inhibited ACE2”. The “enhancement of ACE2 enzymatic activity” value ([1]; confirmation assay, 1% DMSO) was 2 fold, the “increase of ACE2 activity” value ([1]; initial functional screening) was “about 2 fold” and the “ACE2 activity, dose response” value [1, 4] was “dose-dependent manner”. The solubility [2] was “significantly more insoluble”, the ACE activity [3] was “do not enhance ACE activity” and the ACE activity ([3]; 50 or 100 μM compound) was “did not activate; also recorded: not enhanced”. The ACE activity [3, 4] was “did not significantly affect”.

Source: patent US20120142723A1, “ACE2 ACTIVATOR COMPOUNDS AND METHODS OF USE THEREOF” (University of Florida Research Foundation, Inc., priority 2006, published 2012)
